Data published in ChEMBL document CHEMBL5375968, “Peptide TK-HR from the Skin of Chinese Folk Medicine Frog Hoplobatrachus Rugulosus Accelerates Wound Healing via the Activation of the Neurokinin-1 Receptor” (J Med Chem, 2023).
Active and inactive are the calls of the source. No cut-off for these calls is given here.

How the values were obtained:
RAW264.7 [1] = assay: Induction of phagocytosis in mouse RAW264.7 cells cultured with Escherichia coli ATCC 25922 assessed as number of engulfed bacteria at 5 uM incubated for 24 hrs followed by bacterial exposure measured after 1 hr by plate counting method (reference value: 225); assay type: functional; conditions: time 25 hrs
HaCaT [2] = assay: Induction of cell migration in Mitomycin C-treated human HaCaT cells assessed as healing rate at 20 uM measured after 48 hrs by scratch healing assay (reference value: 25.7 %); assay type: functional
RAW264.7 [3] = assay: Induction of IL-6 expression in mouse RAW264.7 cells incubated for 24 hrs by ELISA; assay type: functional, cell-based; conditions: dose 2.5-20 µM
[4] = Toxicity in BALB/c mouse model of full-thickness wounds assessed as inflammatory foci in kidney at 200 ug/ml, TOP bid measured upto 8 days by H and E staining based analysis; assay type: tissue-based; conditions: in vivo, topical_or_ocular, 192 h, dose 200 µg/ml, time < 8 day
HUVEC [5] = assay: Induction of cell migration in Mitomycin C-treated HUVEC cells assessed as healing rate at 20 uM measured after 48 hrs by scratch healing assay (reference value: 51.6 %); assay type: functional, Homo sapiens
Splenic fibroblast = assay: Effect on cell proliferation in human […] fibroblasts at 5 to 40 uM incubated for 24 hrs by MTT assay; assay type: functional, cell-based; conditions: dose 5-40 µM
NIH3T3 = assay: Effect on cell migration in mouse 3T3 cells at 20 uM incubated upto 48 hrs by scratch healing assay; assay type: functional, cell-based
HaCaT [6] = assay: Induction of cell migration in human HaCaT cells assessed as formation of filopodia extensions at 20 uM measured after 24 hrs by immunofluorescence microscopy; assay type: functional, cell-based
Bacillus subtilis = assay: Antimicrobial activity against Bacillus subtilis CMCC 63501 assessed as microbial growth inhibition at 100 uM; assay type: functional, organism-based
HaCaT [7] = assay: Induction of cell migration in human HaCaT cells assessed as actin stress fiber formation at peripheral side of cytoplasmic membrane at 20 uM measured after 24 hrs by immunofluorescence microscopy; assay type: functional, cell-based
HUVEC [8] = assay: Angiogenic activity in HUVEC cells assessed as increase in tube formation at 10 uM measured for 4 hrs by microscopic analysis relative to control; assay type: functional, Homo sapiens
Mus musculus [9] = species on record: Mus musculus; assay: Induction of wound healing in BALB/c mouse model of full-thickness wounds assessed as […] in IL-10 level in wound skin at 50 ug/ml, TOP bid measured after 2 days by ELISA; assay type: functional; conditions: dose 50.0 µg/ml, time 2.0 day
[10] = Induction of wound healing in BALB/c mouse model of full-thickness wounds at 50 ug/ml, TOP bid measured after 8 days (reference value: 81.0 %); assay type: functional; conditions: dose 50 µg/ml, time 8 day
HaCaT [11] = assay: Induction of cell migration in human HaCaT cells assessed as healing rate at 20 uM measured after 48 hrs by scratch healing assay (reference value: 63.1 %); assay type: functional
[12] = Induction of wound healing in BALB/c mouse model of full-thickness wounds at 50 ug/ml, TOP bid pretreated with Aprepitant for 2 hrs followed by compound administration measured after 4 days (reference value: 50.6 %); assay type: functional; conditions: dose 50 µg/ml, time 4 day
[13] = Toxicity in BALB/c mouse model of full-thickness wounds assessed as animal death at 50 to 200 ug/ml, TOP bid measured upto 8 days; conditions: in vivo, topical_or_ocular, 192 h, dose 50-200 µg/ml, time < 8 day
HUVEC [14] = assay: Induction of cell migration in Mitomycin C-treated HUVEC cells assessed as healing rate at 20 uM measured after 24 hrs by scratch healing assay (reference value: 30.2 %); assay type: functional, Homo sapiens
RAW264.7 [15] = assay: Induction of IL-1beta expression in mouse RAW264.7 cells incubated for 24 hrs by ELISA; assay type: functional, cell-based; conditions: dose 2.5-20 µM
Mus musculus [16] = species on record: Mus musculus; assay: Induction of wound healing in BALB/c mouse model of full-thickness wounds assessed as decrease in recruitment of M1-type macrophages in wound skin at 50 ug/ml, TOP bid measured after 4 days by IHC analysis; assay type: functional; conditions: dose 50.0 µg/ml, time 4.0 day
Aorta [17] = assay: Ex vivo angiogenic activity in C57BL/6 mouse aortic ring assessed as increase in sprouting by measuring vessel outgrowth area at 10 uM measured for 7 days by microscopic analysis relative to control; assay type: functional; conditions: time 7 day
Mus musculus [18] = species on record: Mus musculus; assay: Induction of wound healing in BALB/c mouse model of full-thickness wounds assessed as increase in number of blood vessels in wound skin at 50 ug/ml, TOP bid measured after 4 days by IHC analysis; assay type: functional; conditions: dose 50.0 µg/ml, time 4.0 day
HUVEC [19] = assay: Angiogenic activity in HUVEC cells assessed as increase in tube formation at 5 uM measured for 4 hrs by microscopic analysis relative to control; assay type: functional, Homo sapiens
[20] = Induction of wound healing in BALB/c mouse model of full-thickness wounds assessed as alpha-SMA level below wound surface at 50 to 200 ug/ml, TOP bid measured after 8 days by IHC analysis (reference value: 16.4 %); assay type: functional; conditions: dose 50-200 µg/ml, time 8 day, at 50 to 200 µg/mL
Aorta [21] = assay: Ex vivo angiogenic activity in Aprepitant-treated C57BL/6 mouse aortic ring assessed as sprouting by measuring vessel outgrowth area at 20 uM measured for 7 days by microscopic analysis (reference value: 117.3 %); assay type: functional; conditions: time 7 day
Mus musculus [22] = species on record: Mus musculus; assay: Induction of wound healing in BALB/c mouse model of full-thickness wounds assessed as increase in IL-10 level in wound skin at 50 ug/ml, TOP bid measured after 4 days by ELISA; assay type: functional; conditions: dose 50.0 µg/ml, time 4.0 day
Mus musculus [23] = species on record: Mus musculus; assay: Induction of wound healing in BALB/c mouse model of full-thickness wounds assessed as increase in phosphorylated Smad2 level in wound skin at 50 ug/ml, TOP bid measured after 4 days by Western blot analysis; assay type: functional; conditions: dose 50.0 µg/ml, time 4.0 day
RAW264.7 [24] = assay: Upregulation of phosphorylated ERK level in mouse RAW264.7 cells at 2.5 to 20 uM incubated for 4 hrs by Western blot analysis; assay type: functional, cell-based; conditions: dose 2.5-20 µM
RAW264.7 [25] = assay: Upregulation of phosphorylated Smad2 level in Aprepitant-treated mouse RAW264.7 cells at 2.5 to 20 uM incubated for 4 hrs by Western blot analysis; assay type: functional, cell-based; conditions: dose 2.5-20 µM
Mus musculus [26] = species on record: Mus musculus; assay: Induction of wound healing in BALB/c mouse model of full-thickness wounds assessed as increase in epidermal layer re-constuction at 50 ug/ml, TOP bid measured after 8 days by H and E staining based analysis; assay type: functional; conditions: dose 50.0 µg/ml, time 8.0 day
RAW264.7 [27] = assay: Upregulation of phosphorylated JNK level in mouse RAW264.7 cells at 2.5 to 20 uM incubated for 4 hrs by Western blot analysis; assay type: functional, cell-based; conditions: dose 2.5-20 µM
RAW264.7 [28] = assay: Upregulation of phosphorylated Smad3 level in mouse RAW264.7 cells at 2.5 to 20 uM incubated for 4 hrs by Western blot analysis; assay type: functional, cell-based; conditions: dose 2.5-20 µM
HaCaT [29] = assay: Induction of cell migration in Aprepitant-treated human HaCaT cells assessed as healing rate at 20 uM measured after 24 hrs by scratch healing assay (reference value: 36.8 %); assay type: functional
[30] = Induction of wound healing in BALB/c mouse model of full-thickness wounds at 50 ug/ml, TOP bid measured after 4 days (reference value: 48.6 %); assay type: functional; conditions: dose 50 µg/ml, time 4 day
HaCaT [31] = assay: Induction of cell migration in human HaCaT cells assessed as healing rate at 20 uM measured after 24 hrs by scratch healing assay (reference value: 36.8 %); assay type: functional

## H-KPNPDRFYGLM-NH2
RAW264.7 [1]
  Activity: 302
HaCaT [2]
  Activity: 53%
RAW264.7 [3]
  Activity: Dose-Dependent Effect
[4]
  Activity: Non-Toxic
HUVEC [5]
  Activity: 78.7%
Splenic fibroblast
  Activity: inactive
NIH3T3
  Activity: inactive
HaCaT [6]
  Activity: Active
Bacillus subtilis
  Activity: inactive
HaCaT [7]
  Activity: Active
HUVEC [8]
  Activity: 139.5%
Mus musculus [9]
  Activity: Active
[10]
  Activity: 93.1%
HaCaT [11]
  Activity: 92.8%
[12]
  Activity: 56.1%
[13]
  Activity: Non-Toxic
HUVEC [14]
  Activity: 43.7%
RAW264.7 [15]
  Activity: Dose-Dependent Effect
Mus musculus [16]
  Activity: Active
Aorta [17]
  Activity: 117.3%
Mus musculus [18]
  Activity: Active
HUVEC [19]
  Activity: 85.3%
[20]
  Activity: 40.4%
Aorta [21]
  Activity: 40%
Mus musculus [22]
  Activity: Active
Mus musculus [23]
  Activity: Active
RAW264.7 [24]
  Activity: Active
RAW264.7 [25]
  Activity: inactive
Mus musculus [26]
  Activity: Active
RAW264.7 [27]
  Activity: Active
RAW264.7 [28]
  Activity: Active
HaCaT [29]
  Activity: 41.7%
[30]
  Activity: 64.8%
HaCaT [31]
  Activity: 72.1%
